These results are taken from patent US20210395256A1, “TYROSINE KINASE INHIBITORS, COMPOSITIONS AND METHODS THERE OF” (Betta Pharmaceuticals Co., Ltd., priority 2018, published 2021).

One series concerns the target T1, Ba/F3-ETV6-NTRK3 (Homo sapiens, UniProt Q16288).
T1 construct: Ba/F3 cells with TPM3-NTRK1 or ETV6-NTRK3 fusion mutation gene stably overexpressed named Ba/F3-TPM3-NTRK1 and Ba/F3-ETV6-NTRK3; fused on or other part: P41212 (Transcription factor ETV6)
Put plainly: Ba/F3-ETV6-NTRK3 cells proliferation assay. It counts as cell-based. The conditions noted are these: 72 h, CellTiter Glo. As for the experimental part:
(§1) Example 202 Ba/F3-TPM3-NTRK1 and Ba/F3-ETV6-NTRK3 cells proliferation assay
(§2) Cell line: Ba/F3 cells with TPM3-NTRK1 or ETV6-NTRK3 fusion mutation gene stably overexpressed named Ba/F3-TPM3-NTRK1 and Ba/F3-ETV6-NTRK3.
(§3) RPMI 1640 and 10% FBS and 1% PS and 2 ug/mL puromycin.
(§4) b) Collect cell to a 15 mL centrifuged tube, centrifuge at 1000 rpm for 5 min. Discard the supernatant, count, and make the cell density at 1.49×10^4 cells/mL, then place it in a 37° C., 5% CO2 incubator.
(§5) a) The test compound (20 mM stock solution) was diluted to 60 μM with 100% DMSO as starting concentration then 3-fold serial diluted with “9+0” concentrations. in a 96-well dilution plate (Thermo, Cat. No. 249944);
(§6) b) The above compound solution was diluted 1:20 times with culture medium to prepare a 10 fold working solution;
(§7) a) Take cells in log phase growth, centrifuge at 1000 rpm for 5 min, then resuspend the cells with culture medium, then count cells;
(§8) b) Cells were seeded to 96-well cell culture plate with density at 2000 cells/well;
(§9) a) Compounds prepared at step 2 were added to cell plate with 15 μL per well, the final concentrations were 300, 100, 33.33, 11.11, 3.70, 1.23, 0.41, 0.14, 0.05 and 0 nM, and the final concentration of DMSO was 0.5%. The blank control well was a culture medium (0.5% DMSO);
(§10) c) The cells were incubated for an additional 72 h in the incubator.
(§11) a) Remove the 96-well cell culture plate and add 50 μl of CTG reagent (CellTiter Glo kit, promega, Cat #G7573).
(§12) b) Plate was shaked for 2 min and then let it cool for 30 min at room temperature.
(§13) c) The Luminescence signal value was read using a PerkinElmer reader.
(§14) Experimental Data Analysis
(§15) Data were analyzed using GraphPad Prism 6.0 software to obtain a fitted curve of compound activity.
(§16) Fit the Compound IC50 from non-linear regression equation:
(§17) Y=Bottom+(Top-Bottom)/(1+10^((Log IC50-X)×HillSlope));
(§18) X: The log of the concentration of the compound; Y: Luminescence value.

The target of the next series is TrkA kinase (Homo sapiens, UniProt P04629). Description: TrkA kinase assay (mobility shift assay). It counts as biochemical. The conditions noted are these: read-out: Trk A Kinase IC50. Summed up:
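Caliper mobility-shift readout of FAM-labelled peptide conversion by TrkA in 50 mM HEPES pH 7.5, 0.0015% Brij-35, with ATP; enzyme preincubated 10 min with compound (10-point dilution), reaction at 28 °C, EDTA stop. Inhibition relative to DMSO and no-enzyme controls; IC50 by four-parameter fit.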

The next series addresses T2, Ba/F3-TPM3-NTRK1 (Homo sapiens, UniProt P04629).
T2 construct: expressed in transfected cells; host or cells: Ba/F3; the other entry of the earlier key: TPM3 (P06753, Tropomyosin alpha-3 chain)
Description: Ba/F3-TPM3-NTRK1 cells proliferation assay. It counts as cell-based. The following applies: 72 h, CellTiter Glo. As for the experimental part:
as §1, §2, §3, §4, §5, §6, §7, §8, §9, §10, §11, §12, §13, §14, §15, §16, §17, §18

Series [1] can be described thus: Liver microsomes metabolic stability assay, human. It counts as in vitro ADME. The conditions noted are these: human liver microsomes 0.5 mg/mL, 37° C. The procedure:
(§19) Example 203 Liver Microsomes Metabolic Stability Assay
(§20) Pooled human liver microsomes (Cat. 452117) were purchased from Corning. Pooled male rat liver microsomes (Cat. R1000) and pooled male mouse liver microsomes (Cat. M1000) were purchased from XENOTECH. Microsomes were stored at −80° C.
(§21) 1) Make a master solution containing phosphate buffer, ultra-pure H2O and MgCl2 solution according to Table 14.
(§22) 2) Two separated experiments were performed as follows.
(§23) a) With NADPH: 10 μL of 20 mg/mL liver microsomes and 40 μL of 10 mM NADPH were added to the incubations. The final concentrations of microsomes and NADPH were 0.5 mg/mL and 1 mM, respectively.
(§24) b) Without NADPH: 10 μL of 20 mg/mL liver microsomes and 40 μL of ultra-pure H2O were added to the incubations. The final concentration of microsomes was 0.5 mg/mL.
(§25) 3) The reaction was started with the addition of 4 μL test compounds solutions or control compound solution (verapamil) at the final concentration of 2 μM and carried out at 37° C.
(§26) 4) Aliquots of 50 μL were taken from the reaction solution at 0, 15, 30, 45 and 60 min. The reaction solutions were stopped by the addition of 4 volumes of cold acetonitrile with 1S (100 nM alprazolam, 200 nM caffeine, 200 nM labetalol and 2 μM ketoprofen). Samples were centrifuged at 3,220 g for 40 minutes. Aliquot of 100 μL of the supernatant was mixed with 100 μL of ultra-pure H2O and then used for LC-MS/MS analysis. All experiments were performed in duplicate.
(§27) The slope value, k, was determined by linear regression of the natural logarithm of the remaining percentage of the parent drug vs. incubation time curve.
(§28) The in vitro half-life (in vitro t1/2) was determined from the slope value:
(§29) Conversion of the in vitro t1/2 (in min) into the in vitro intrinsic clearance (in vitro CLint, in μL/min/mg proteins) was done using the following equation (mean of duplicate determinations): […]
(§30) The control compound (verapamil) was included in the assay. Any value of the compounds that was not within the specified limits will be rejected and the experiment will be repeated.

A short description of series [2]: Liver microsomes metabolic stability assay, rat. The following applies: rat liver microsomes 0.5 mg/mL, 37° C. It counts as in vitro ADME. As for the experimental part:
as §19, §20, §21, §22, §23, §24, §25, §26, §27, §28, §29, §30

Series [3] is described as follows: Liver microsomes metabolic stability assay, mouse. It counts as in vitro ADME. The conditions noted are these: mouse liver microsomes 0.5 mg/mL, 37° C. The procedure: as §19, §20, §21, §22, §23, §24, §25, §26, §27, §28, §29, §30

SMILES strings stand for the structures. pIC50: −log10 of the molar value. Read-outs that look alike come from different tables or passages of the source.

Chain of TrkA kinase (P04629 33-796): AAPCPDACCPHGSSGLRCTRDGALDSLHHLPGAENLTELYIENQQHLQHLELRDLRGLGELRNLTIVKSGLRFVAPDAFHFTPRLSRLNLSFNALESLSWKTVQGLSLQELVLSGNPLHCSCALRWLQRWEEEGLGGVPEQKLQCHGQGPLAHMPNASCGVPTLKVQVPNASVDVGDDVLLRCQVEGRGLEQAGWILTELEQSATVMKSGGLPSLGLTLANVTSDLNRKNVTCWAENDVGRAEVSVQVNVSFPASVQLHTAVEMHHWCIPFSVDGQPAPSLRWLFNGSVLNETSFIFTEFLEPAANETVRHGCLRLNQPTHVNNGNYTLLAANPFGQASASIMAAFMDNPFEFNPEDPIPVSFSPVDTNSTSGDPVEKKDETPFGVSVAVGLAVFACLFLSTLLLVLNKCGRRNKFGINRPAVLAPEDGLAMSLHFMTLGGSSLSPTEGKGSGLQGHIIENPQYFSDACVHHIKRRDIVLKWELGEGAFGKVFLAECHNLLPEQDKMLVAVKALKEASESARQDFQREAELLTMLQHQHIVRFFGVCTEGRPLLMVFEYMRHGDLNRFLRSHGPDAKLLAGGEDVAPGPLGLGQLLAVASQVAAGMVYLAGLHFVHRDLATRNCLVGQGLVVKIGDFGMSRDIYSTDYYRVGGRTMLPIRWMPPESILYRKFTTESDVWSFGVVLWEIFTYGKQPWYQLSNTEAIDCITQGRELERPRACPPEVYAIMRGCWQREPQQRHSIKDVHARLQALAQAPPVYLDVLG
T2 sequence (P04629 510-796 limits assumed): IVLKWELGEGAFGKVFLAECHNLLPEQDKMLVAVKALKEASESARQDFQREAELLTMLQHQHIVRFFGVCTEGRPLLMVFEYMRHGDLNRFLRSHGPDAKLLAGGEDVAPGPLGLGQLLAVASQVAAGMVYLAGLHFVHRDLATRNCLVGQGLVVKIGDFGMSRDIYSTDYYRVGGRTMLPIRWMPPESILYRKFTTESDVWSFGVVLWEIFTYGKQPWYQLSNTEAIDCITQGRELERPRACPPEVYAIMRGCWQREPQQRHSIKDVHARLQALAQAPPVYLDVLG
T1 sequence (Q16288 whole entry, the tested form may be a part): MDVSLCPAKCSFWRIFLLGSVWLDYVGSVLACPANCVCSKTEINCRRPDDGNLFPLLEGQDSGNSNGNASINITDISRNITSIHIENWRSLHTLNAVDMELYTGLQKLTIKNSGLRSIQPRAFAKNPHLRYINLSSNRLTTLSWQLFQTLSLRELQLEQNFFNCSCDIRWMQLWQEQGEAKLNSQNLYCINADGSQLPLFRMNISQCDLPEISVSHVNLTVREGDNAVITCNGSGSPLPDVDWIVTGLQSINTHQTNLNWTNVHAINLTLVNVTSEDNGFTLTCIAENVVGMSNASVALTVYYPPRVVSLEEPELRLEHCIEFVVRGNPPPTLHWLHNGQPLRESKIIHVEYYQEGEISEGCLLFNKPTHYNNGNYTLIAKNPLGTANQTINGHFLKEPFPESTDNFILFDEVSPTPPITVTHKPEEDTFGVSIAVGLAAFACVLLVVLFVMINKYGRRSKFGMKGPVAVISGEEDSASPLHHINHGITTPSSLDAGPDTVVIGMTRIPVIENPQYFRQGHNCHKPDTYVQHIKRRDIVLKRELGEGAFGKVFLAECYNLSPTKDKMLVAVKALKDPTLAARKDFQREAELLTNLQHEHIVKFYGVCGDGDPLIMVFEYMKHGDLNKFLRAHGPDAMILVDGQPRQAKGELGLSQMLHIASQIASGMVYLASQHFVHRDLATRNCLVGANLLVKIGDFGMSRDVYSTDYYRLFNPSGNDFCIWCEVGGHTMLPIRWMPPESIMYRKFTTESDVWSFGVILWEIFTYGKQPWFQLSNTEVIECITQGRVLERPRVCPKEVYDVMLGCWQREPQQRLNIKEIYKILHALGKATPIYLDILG

`Fc1ccc(F)c([C@H]2CCCN2c2ccn3ncc(-c4nnc(-c5ccncc5)[nH]4)c3n2)c1` [Compound 8, (R)-5-(2-(2,5-difluorophenyl)pyrrolidin-1-yl)-3-(5-(pyridin-4-yl)-4H-1,2,4-triazol-3-yl)pyrazolo[1,5-a]pyrimidine] gave a pIC50 at Ba/F3-ETV6-NTRK3 of 8.81.
Turning to `Oc1ccc(-c2nnc(-c3cnn4ccc(N5CCC[C@@H]5c5cc(F)ccc5F)nc34)[nH]2)cc1` [Compound 9, (R)-4-(5-(5-(2-(2,5-difluorophenyl)pyrrolidin-1-yl)pyrazolo[1,5-a]pyrimidin-3-yl)-4H-1,2,4-triazol-3-yl)phenol], the pIC50 is 7.30 to 8.00 on TrkA kinase (class symbols), 8.69 against Ba/F3-TPM3-NTRK1 and 8.68 against Ba/F3-ETV6-NTRK3.
On the same counts, the results for `Fc1ccc(F)c([C@H]2CCCN2c2ccn3ncc(-c4nnc(-c5cnccn5)[nH]4)c3n2)c1` [Compound 10, (R)-5-(2-(2,5-difluorophenyl)pyrrolidin-1-yl)-3-(5-(pyrazin-2-yl)-4H-1,2,4-triazol-3-yl)pyrazolo[1,5-a]pyrimidine] are 7.30 to 8.00, 8.94 and 8.92.
On the same counts, the results for `COC(=O)N[C@@H](C)c1nnc(-c2cnn3ccc(N4CCC[C@@H]4c4cc(F)ccc4F)nc23)[nH]1` [Compound 12, methyl ((S)-1-(5-(5-((R)-2-(2,5-difluorophenyl)pyrrolidin-1-yl)pyrazolo[1,5-a]pyrimidin-3-yl)-4H-1,2,4-triazol-3-yl)ethyl)carbamate] are under 7.30, 8.11 and 8.57.
On the same counts, the results for `N#Cc1cccc(-c2nnc(-c3cnn4ccc(N5CCC[C@@H]5c5cc(F)ccc5F)nc34)[nH]2)c1` [Compound 13, (R)-3-(5-(5-(2-(2,5-difluorophenyl)pyrrolidin-1-yl)pyrazolo[1,5-a]pyrimidin-3-yl)-4H-1,2,4-triazol-3-yl)benzonitrile] are at least 8.00, 9.01 and 8.74.
As to `Fc1ccc(F)c([C@H]2CCCN2c2ccn3ncc(-c4nnc(-c5ccc(C(F)(F)F)nc5)[nH]4)c3n2)c1` [Compound 14, (R)-5-(2-(2,5-difluorophenyl)pyrrolidin-1-yl)-3-(5-(6-(trifluoromethyl)pyridin-3-yl)-4H-1,2,4-triazol-3-yl)pyrazolo[1,5-a]pyrimidine], the pIC50 at TrkA kinase (class symbols) was under 7.30; against Ba/F3-TPM3-NTRK1, 7.90; against Ba/F3-ETV6-NTRK3, 8.00.
The corresponding values for `CCOC(=O)c1nnc(-c2cnn3ccc(N4CCC[C@@H]4c4cc(F)ccc4F)nc23)[nH]1` [Compound 16, ethyl (R)-5-(5-(2-(2,5-difluorophenyl)pyrrolidin-1-yl)pyrazolo[1,5-a]pyrimidin-3-yl)-4H-1,2,4-triazole-3-carboxylate] are under 7.30, 8.04 and 8.38.
In the case of `O=C(O)c1nnc(-c2cnn3ccc(N4CCC[C@@H]4c4cc(F)ccc4F)nc23)[nH]1` [Compound 17, (R)-5-(5-(2-(2,5-difluorophenyl)pyrrolidin-1-yl)pyrazolo[1,5-a]pyrimidin-3-yl)-4H-1,2,4-triazole-3-carboxylic acid], the pIC50 at TrkA kinase (class symbols) was under 7.30; against Ba/F3-TPM3-NTRK1, 8.39; at Ba/F3-ETV6-NTRK3, 8.45. Further, the “t1/2 Human” value in series [1] (2 μM) was “∞”. For the same compound, the values for the microsomal CLint at 2 μM in series [1] and in series [3] (male) were 0.27 µL/min/mg and 2.23 µL/min/mg, respectively. In addition, the half-life at 2 μM in series [2] (male, read-out: t1/2 Rat) was 10.4 h. In series [2] (2 μM), the “CLint Rat” value is recorded as 0.00 μL/min/mg proteins. Besides, in series [3] (2 μM), the “t1/2 Mouse” value is “∞”.
In the case of `OC1CCC[C@H](c2nnc(-c3cnn4ccc(N5CCC[C@@H]5c5cc(F)ccc5F)nc34)[nH]2)C1` (stereo partly drawn) [Compound 18, (3S)-3-(5-(5-((R)-2-(2,5-difluorophenyl)pyrrolidin-1-yl)pyrazolo[1,5-a]pyrimidin-3-yl)-4H-1,2,4-triazol-3-yl)cyclohexan-1-ol], the pIC50 at TrkA kinase (class symbols) was 7.30 to 8.00; against Ba/F3-TPM3-NTRK1, 8.42; against Ba/F3-ETV6-NTRK3 it was 8.55.
Turning to `Fc1ccc(F)c([C@H]2CCCN2c2ccn3ncc(-c4nnc(C5CCNCC5)[nH]4)c3n2)c1` [Compound 22, (R)-5-(2-(2,5-difluorophenyl)pyrrolidin-1-yl)-3-(5-(piperidin-4-yl)-4H-1,2,4-triazol-3-yl)pyrazolo[1,5-a]pyrimidine], the pIC50 on TrkA kinase (class symbols) is 7.30 to 8.00; on Ba/F3-TPM3-NTRK1, 8.53; against Ba/F3-ETV6-NTRK3, 8.61.
Consider `O=C(O)c1cc2nc(-c3cnn4ccc(N5CCC[C@@H]5c5cc(F)ccc5F)nc34)[nH]c2cc1F` [Compound 141, (R)-2-(5-(2-(2,5-difluorophenyl)pyrrolidin-1-yl)pyrazolo[1,5-a]pyrimidin-3-yl)-6-fluoro-1H-benzo[d]imidazole-5-carboxylic acid], for which the pIC50 at TrkA kinase (numeric values) was 9.52; on Ba/F3-TPM3-NTRK1, 7.52; against Ba/F3-ETV6-NTRK3, 7.68.
On the same counts, the results for `COC(=O)[C@@H]1CCCN1c1cc2[nH]c(-c3cnn4ccc(N5CCC[C@@H]5c5cc(F)ccc5F)nc34)nc2cc1C#N` [Compound 166, methyl (5-cyano-2-(5-((R)-2-(2,5-difluorophenyl)pyrrolidin-1-yl)pyrazolo[1,5-a]pyrimidin-3-yl)-1H-benzo[d]imidazol-6-yl)-L-prolinate] are 8.60, 8.33 and 8.11.
The corresponding values for `N#Cc1cc2nc(-c3cnn4ccc(N5CCC[C@@H]5c5cc(F)ccc5F)nc34)[nH]c2cc1N1CCC[C@H]1C(=O)O` [Compound 167, (5-cyano-2-(5-((R)-2-(2,5-difluorophenyl)pyrrolidin-1-yl)pyrazolo[1,5-a]pyrimidin-3-yl)-1H-benzo[d]imidazol-6-yl)-L-proline] are 9.52, 7.88 and 7.71.
